In PMC3759295 (Toxicology letters, 2013):
“And” between values parts separate entries of the source, which are not always exact repeats. Equal values may be shown once. One block for each compound: values may come before it.

Columns and labels:
[1] = tested on: CYP1A1 mRNA; assay: CYP1A1 mRNA expression in primary human hepatocytes; format: cell-based; details: human
[2] = biological target: T1, AhR (Cavia porcellus, UniProt Q6J287); details: any tested concentration, 2 nM [3H]TCDD
T1 sequence (Q6J287 1-846): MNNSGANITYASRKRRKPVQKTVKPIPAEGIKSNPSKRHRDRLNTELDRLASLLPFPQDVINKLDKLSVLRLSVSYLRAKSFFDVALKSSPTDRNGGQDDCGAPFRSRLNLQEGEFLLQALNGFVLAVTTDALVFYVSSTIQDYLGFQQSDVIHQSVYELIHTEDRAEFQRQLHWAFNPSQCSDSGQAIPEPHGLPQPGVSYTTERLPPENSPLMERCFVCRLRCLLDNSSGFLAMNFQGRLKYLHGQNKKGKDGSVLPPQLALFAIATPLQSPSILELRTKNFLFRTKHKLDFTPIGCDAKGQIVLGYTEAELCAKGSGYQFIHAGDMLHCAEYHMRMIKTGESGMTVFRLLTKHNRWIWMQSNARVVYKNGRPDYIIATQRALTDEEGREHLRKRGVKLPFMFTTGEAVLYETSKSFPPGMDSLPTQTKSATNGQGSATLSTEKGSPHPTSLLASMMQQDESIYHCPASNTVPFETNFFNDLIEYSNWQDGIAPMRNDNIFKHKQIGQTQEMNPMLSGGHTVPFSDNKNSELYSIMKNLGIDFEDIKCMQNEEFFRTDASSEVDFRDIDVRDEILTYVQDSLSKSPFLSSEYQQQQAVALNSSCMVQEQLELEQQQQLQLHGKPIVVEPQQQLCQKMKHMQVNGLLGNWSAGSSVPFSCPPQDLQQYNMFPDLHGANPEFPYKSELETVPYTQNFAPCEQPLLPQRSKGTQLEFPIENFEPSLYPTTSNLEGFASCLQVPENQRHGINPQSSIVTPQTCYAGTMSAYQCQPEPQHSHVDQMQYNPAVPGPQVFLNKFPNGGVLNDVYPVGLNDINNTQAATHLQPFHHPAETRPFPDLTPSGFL

[3] = tested on: CYP1A1 mRNA in HepG2 cells; assay: CYP1A1 mRNA expression in HepG2 cells; details: 24 h
[4] = tested on: CYP1A1 mRNA in primary human hepatocytes; assay: CYP1A1 mRNA expression in primary human hepatocytes; format: cell-based
[5] = tested on: CYP1A1 protein in primary human hepatocytes; assay: CYP1A1 protein in primary human hepatocytes; details: for induction of CYP1A1 protein: four different primary human hepatocytes cultures
[6] = tested on: CYP1A1 mRNA in LS174T cells; assay: CYP1A1 mRNA expression in LS174T cells; details: 24 h
[7] = biological target: T2, AhR (Homo sapiens, UniProt P35869); assay: Gene reporter assay, transcriptional activity of AhR in AZ-AHR reporter cells; details: 10 µM and 50 µM, 24 h
T2 sequence (P35869 11-848): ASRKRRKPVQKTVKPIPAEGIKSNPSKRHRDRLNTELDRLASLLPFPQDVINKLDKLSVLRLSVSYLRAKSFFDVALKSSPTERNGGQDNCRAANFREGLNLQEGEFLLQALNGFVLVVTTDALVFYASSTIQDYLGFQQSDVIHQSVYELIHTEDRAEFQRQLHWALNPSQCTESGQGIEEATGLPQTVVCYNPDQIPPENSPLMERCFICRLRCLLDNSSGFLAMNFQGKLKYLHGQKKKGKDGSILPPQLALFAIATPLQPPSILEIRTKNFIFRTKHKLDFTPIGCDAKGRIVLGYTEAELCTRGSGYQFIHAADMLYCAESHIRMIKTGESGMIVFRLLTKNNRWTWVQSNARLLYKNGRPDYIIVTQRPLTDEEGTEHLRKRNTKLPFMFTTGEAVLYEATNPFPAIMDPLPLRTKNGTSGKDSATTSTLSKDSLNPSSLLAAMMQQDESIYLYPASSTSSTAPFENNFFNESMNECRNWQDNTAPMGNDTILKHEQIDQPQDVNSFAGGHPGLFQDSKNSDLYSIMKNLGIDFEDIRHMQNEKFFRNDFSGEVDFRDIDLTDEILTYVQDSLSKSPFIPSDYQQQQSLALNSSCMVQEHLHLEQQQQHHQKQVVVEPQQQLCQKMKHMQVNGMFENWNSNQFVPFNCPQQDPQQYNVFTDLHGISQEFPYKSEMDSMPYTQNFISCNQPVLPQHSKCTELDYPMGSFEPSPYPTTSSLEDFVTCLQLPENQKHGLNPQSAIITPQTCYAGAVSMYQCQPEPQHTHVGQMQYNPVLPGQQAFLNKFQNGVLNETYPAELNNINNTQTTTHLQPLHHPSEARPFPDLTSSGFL

[8] = biological target: T3, CYP1A1 (Homo sapiens, UniProt P04798); assay: Enzyme activity of CYP1A1 in human liver microsomes; format: biochemical; details: 100 µM
T3 sequence (P04798 1-512): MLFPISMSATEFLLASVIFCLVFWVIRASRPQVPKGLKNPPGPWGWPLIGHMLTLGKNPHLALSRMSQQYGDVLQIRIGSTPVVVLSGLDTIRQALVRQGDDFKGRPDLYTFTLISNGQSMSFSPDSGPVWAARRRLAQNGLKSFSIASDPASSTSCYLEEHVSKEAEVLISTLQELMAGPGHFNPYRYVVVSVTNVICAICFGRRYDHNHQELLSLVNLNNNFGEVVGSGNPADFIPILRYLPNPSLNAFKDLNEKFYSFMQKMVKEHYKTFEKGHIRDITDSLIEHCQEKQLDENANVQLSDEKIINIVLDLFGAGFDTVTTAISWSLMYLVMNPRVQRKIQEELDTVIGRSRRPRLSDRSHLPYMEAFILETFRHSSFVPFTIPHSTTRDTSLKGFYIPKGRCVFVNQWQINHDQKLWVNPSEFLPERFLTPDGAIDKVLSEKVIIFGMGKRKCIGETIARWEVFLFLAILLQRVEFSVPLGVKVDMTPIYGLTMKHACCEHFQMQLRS

[9] = tested on: CYP1A1 protein in LS174T cells; assay: CYP1A1 protein in LS174T cells; format: cell-based, human; details: TCDD 5 nM, 48 h
[10] = tested on: CYP1A1 protein in HepG2 cells; assay: CYP1A1 protein in HepG2 cells; format: cell-based, human; details: HepG2, TCDD 5 nM, 48 h
[11] = tested on: CYP1A1; details: read-out: IC50, inhibition of CYP1A1; aglycons (anthocyanidins); ref Kamenickova et al. 2013; cited from earlier work
[12] = primary human hepatocytes (culture LH48 as printed)
[13] = male, primary human hepatocytes (culture LH45)
[14] = male, primary human hepatocytes (culture LH46)
[15] = male, primary human hepatocytes (culture LH47)

fold induction at 24 h, 50 µM [1, 12]: 0.03
fold induction at 24 h, 10 µM [1, 13]: 1.22 ± 0.04
fold induction at 24 h, 50 µM [1, 13]: 0.73 ± 0.22
fold induction at 24 h, 10 µM [1, 14]: 1.14 ± 0.2
fold induction at 24 h, 50 µM [1, 14]: 1.04 ± 0.12
fold induction at 24 h, 50 µM [1, 15]: 0.28 ± 0.01
Compound: OC[C@H]1O[C@@H](Oc2cc3c(O)cc(O)cc3[o+]c2-c2ccc(O)c(O)c2)[C@H](O)[C@@H](O)[C@@H]1O [CYA-1, cyanidin-3-O-glucoside chloride]

displacement of radiolabelled TCDD from AhR [2]: did not displace
level of CYP1A1 mRNA ([3]; HepG2, 50 µM): significantly increased
induction of CYP1A1 mRNA ([4]; four different primary human hepatocytes cultures): Neither compound induced
fold induction at 24 h, 50 µM [1, 12]: 0.13 ± 0.03
fold induction at 24 h, 10 µM [1, 13]: 0.68 ± 0.2
fold induction at 24 h, 50 µM [1, 13]: 0.48 ± 0.07
fold induction at 24 h, 10 µM [1, 14]: 2.21 ± 0.16
fold induction at 24 h, 50 µM [1, 14]: 2.59 ± 0.09
fold induction at 24 h, 50 µM [1, 15]: 0.45 ± 0.03
induction of CYP1A1 protein [5]: Neither compound induced
level of CYP1A1 mRNA ([6]; 50 µM): significantly increased
induction of luciferase activity [7]: concentration-dependent induction
Compound: OC[C@H]1O[C@@H](Oc2cc3c(O[C@@H]4O[C@H](CO)[C@@H](O)[C@H](O)[C@H]4O)cc(O)cc3[o+]c2-c2ccc(O)c(O)c2)[C@H](O)[C@@H](O)[C@@H]1O [CYA-3, cyanidin-3,5-di-O-glucoside chloride]

fold induction at 24 h, 50 µM [1, 12]: 0.29 ± 0.03
fold induction at 24 h, 10 µM [1, 13]: 1.13 ± 0.35
fold induction at 24 h, 50 µM [1, 13]: 0.93 ± 0.11
fold induction at 24 h, 10 µM [1, 14]: 2.34 ± 0.25
fold induction at 24 h, 50 µM [1, 14]: 1.56 ± 0.23
fold induction at 24 h, 50 µM [1, 15]: 0.14 ± 0.13
Compound: COc1cc(-c2[o+]c3cc(O)cc(O)c3cc2O[C@@H]2O[C@H](CO)[C@@H](O)[C@H](O)[C@H]2O)cc(OC)c1O [MAL-1, malvidin-3-O-glucoside chloride]

induction of luciferase activity [7]: No significant induction
Compound: Oc1cc(O)c2c(c1)O[C@@]1(c3ccc(O)c(O)c3)Oc3cc(O)c4c(c3[C@@H]2[C@H]1O)O[C@H](c1ccc(O)c(O)c1)[C@H](O)C4 [PAC, proanthocyanidin A2]

Compound: CC1OC(OCC2OC(Oc3cc4c(O)cc(O)cc4[o+]c3-c3ccc(O)cc3)C(O)C(O)C2O)C(O)C(O)C1O.[Cl-] (stereo not drawn) [PEL-2, pelargonidin-3-O-rutinoside chloride]
CYP1A1 mRNA fold induction over the vehicle-treated cells, LH45 ([4]; hepatocyte culture LH45, 10 µM, 24 h): 0.87 ± 0.04 fold
CYP1A1 mRNA fold induction over the vehicle-treated cells, LH45 ([4]; hepatocyte culture LH45, 50 µM, 24 h): 0.24 ± 0.01 fold
CYP1A1 mRNA fold induction over the vehicle-treated cells, LH46 ([4]; hepatocyte culture LH46, 10 µM, 24 h): 2.66 ± 0.20 fold
CYP1A1 mRNA fold induction over the vehicle-treated cells, LH46 ([4]; hepatocyte culture LH46, 50 µM, 24 h): 2.39 ± 0.22 fold
CYP1A1 mRNA fold induction over the vehicle-treated cells, LH47 ([4]; hepatocyte culture LH47, 50 µM, 24 h): 0.61 ± 0.01 fold
CYP1A1 mRNA fold induction over the vehicle-treated cells, LH48 ([4]; hepatocyte culture LH48 (so in the source), 50 µM, 24 h): 0.60 ± 0.17 fold
induction of CYP1A1 mRNA ([4]; hepatocytes): Neither compound induced
CYP1A1 activity remaining, % of the initial activity (without anthocyanin) [8]: 79%
induction of CYP1A1 protein [5]: Neither compound induced
induction of luciferase activity [7]: concentration-dependent induction

Compound: Clc1cc2c(cc1Cl)Oc1cc(Cl)c(Cl)cc1O2 [TCDD, 2,3,7,8-Tetrachlorodibenzo-p-dioxin]
induction of CYP1A1 mRNA ([3]; HepG2, TCDD 5 nM, two independent experiments): 322 fold and 216 fold
levels of CYP1A1 protein [9]: strongly induced
CYP1A1 mRNA fold induction over the vehicle-treated cells, LH45 ([4]; hepatocyte culture LH45, TCDD 5 nM, 24 h): 125.4 ± 17.7 fold
CYP1A1 mRNA fold induction over the vehicle-treated cells, LH47 ([4]; hepatocyte culture LH47, TCDD 5 nM, 24 h): 104.7 ± 13.4 fold
magnitude of induction of CYP1A1 mRNA, LH49 ([4]; hepatocyte culture LH49, TCDD, 24 h): 71 fold
levels of CYP1A1 protein ([5]; four human hepatocytes cultures, TCDD 5 nM, 48 h): strongly induced
levels of CYP1A1 protein [10]: strongly induced
induction of CYP1A1 mRNA ([6]; TCDD 5 nM, two independent experiments): 1003 fold and 724 fold

Compound: Oc1cc(O)c2cc(O)c(-c3cc(O)c(O)c(O)c3)[o+]c2c1 [delphinidin]
IC50 [11]: 77 µM

Compound: Oc1ccc(-c2[o+]c3cc(O)cc(O)c3cc2O)cc1 [pelargonidin]
IC50 [11]: 33 µM
